# Laboratory results published in US9895363B2, “Methods for modulating function of proliferating cell nuclear antigen (PCNA) and treating cancer with PCNA-targeting compounds” (University of Cincinnati, priority 2010, dated 2018).
# Read-outs that look alike come from different tables or passages of the source.
# How the values were obtained:
# [1] = system: MCF-7 breast cancer cells; experiment: Growth inhibition by MTT staining, MCF-7; assay type: cell-based; settings: MCF7, 96 h, Human, tumor cells, treated four days
# Method: (§1) Growth inhibitory effects of PCNA-I1 and PCNA-I2 were assessed in human cancer cell lines, mouse cancer cell lines, immortalized mouse cell lines, and human primary cell lines. Specifically, growth inhibitory effects of PCNA-I1 and PCNA-I2 were assessed using MTT staining in the following cells lines: 1) human cancer cell lines including LNCaP (androgen receptor […]), 22Rv1, DU-145, LAPC-4, and PC-3 (androgen receptor […]) prostate cancer cells; MCF-7 and T47D breast cancer cells; A375 and MDA-MB435 melanoma cells; 2) mouse cancer cell lines including TRAMP-C2RE3 prostate cancer cells, B16 and K1735 melanoma cells, UV2237 fibrosarcoma cells, and CT-26 colon cancer cells; 3) immortalized mouse lung cell lines and mouse endothelial cell lines; and 4) primary human cell lines including umbilical endothelial cells (HUVEC, PromoCell, Heidelberg, Germany), primary bone marrow mesenchymal stem cells (HuMSC, PromoCell), primary human mammary epithelial cells (HuBrEC, Lonza, Walkersville, Md.), primary human prostate epithelial cells (HuPrEC, Lonza), and primary mouse spleen lymphocytes (isolated in this laboratory), and primary mouse bone marrow stromal cells (isolated in this laboratory). […]
# (§2) IC50 values were derived from growth inhibition curves. […] Inhibition of cell growth was calculated using the formula: growth inhibition (%)=(1−A570 of treated/A570 of control)×100. […]
# [2] = system: PC-3 prostate cancer cells; experiment: Growth inhibition by MTT staining, PC-3; assay type: cell-based, Human
# Method: Growth inhibitory effects of PCNA-I1 and PCNA-I2 were assessed in human cancer cell lines, mouse cancer cell lines, immortalized mouse cell lines, and human primary cell lines. Specifically, growth inhibitory effects of PCNA-I1 and PCNA-I2 were assessed using MTT staining in the following cells lines: 1) human cancer cell lines including LNCaP (androgen receptor […]), 22Rv1, DU-145, LAPC-4, and PC-3 (androgen receptor […]) prostate cancer cells; MCF-7 and T47D breast cancer cells; A375 and MDA-MB435 melanoma cells; 2) mouse cancer cell lines including TRAMP-C2RE3 prostate cancer cells, B16 and K1735 melanoma cells, UV2237 fibrosarcoma cells, and CT-26 colon cancer cells; 3) immortalized mouse lung cell lines and mouse endothelial cell lines; and 4) primary human cell lines including umbilical endothelial cells (HUVEC, PromoCell, Heidelberg, Germany), primary bone marrow mesenchymal stem cells (HuMSC, PromoCell), primary human mammary epithelial cells (HuBrEC, Lonza, Walkersville, Md.), primary human prostate epithelial cells (HuPrEC, Lonza), and primary mouse spleen lymphocytes (isolated in this laboratory), and primary mouse bone marrow stromal cells (isolated in this laboratory). PCNA-I1 and PCNA-I2 were either provided by the University of Cincinnati Drug Discovery Center (UC-DDC, Cincinnati, Ohio) or were purchased from Chembridge Co (San Diego, Calif.), ChemDiv (San Diego, Calif.), and/or Sigma-Aldrich (St Louis, Mo.).
# Growth inhibitory effects of the compounds were assessed by MTT staining as described previously by Dong et al. in In Vitro Model for Intrinsic Drug Resistance: Effects of Protein Kinase C Activators on the Chemosensitivity of Cultured Human Colon Cancer Cells; Mol. Pharmacol. 1991; 39: 563-9. Briefly, cells were cultured and treated in their respective media. Cells were plated into 96-well plates at 1000 to 5000 cells/well. After an overnight incubation, the cells were treated for four days with various concentrations (up to 10 μM) of PCNA-I1 or PCNA-I2. The live cells were stained with MTT and cells in exponential growth phase were harvested by a one to three minute treatment with a 0.25% trypsin-0.02% EDTA solution. Flasks were tapped to detach the cells, RPMI 1640-10% FBS was added, and the cell suspensions were gently agitated to produce single-cell suspensions. The cell suspensions were washed and resuspended in medium with supplements specified for different cells. Only suspensions of single cells with a viability exceeding 95% (ascertained by trypan blue exclusion) were used.
# IC50 values were derived from growth inhibition curves. Data for tumor cells are a mean of five to seven experiments. Data for primary cells are a mean of three experiments. […] Inhibition of cell growth was calculated using the formula: growth inhibition (%)=(1−A570 of treated/A570 of control)×100. IC50 (the concentration that inhibited cell growth by 50%) values were also determined. For evaluation of lymphocyte growth in suspension, an Alamar blue assay was performed, wherein freshly prepared mouse spleen lymphocytes were stimulated for 72 H with 2 ug/mL concanavalin A (Sigma Chemicals, St. Louis, […].). During the last 24 H, 20 μl/well of Alamar blue (Invitrogen, Carlsbad, Calif.) was added. The fluorescence intensity was measured at 530/580 (excitation/emission) in the FLUOstar Omega microplate reader (BMG LABTECH, Cary, N.C.).
# Growth inhibitory effects of PCNA-I3, PCNA-I4, PCNA-I6, PCNA-I7, PCNA-I8, PCNA-I9 and PCNA-I10 were assessed in human prostate cancer cell lines. Specifically, growth inhibitory effects of PCNA-I3, PCNA-I4, PCNA-I6, PCNA-I7, PCNA-I8, PCNA-I9 and PCNA-I10 were assessed using MTT staining in LNCaP and PC-3 cells. […]
# [3] = system: DU145 prostate cancer cells; experiment: Growth inhibition by MTT staining, DU145; assay type: cell-based; settings: DU-145, 96 h, Human tumor cells, treated four days
# Method: as §1, §2
# B16 melanoma cells = experiment: Growth inhibition by MTT staining, B16; assay type: cell-based; settings: B16, 96 h, Mouse, treated four days
# Method: as §1, §2
# K1735 melanoma cells = experiment: Growth inhibition by MTT staining, K1735; assay type: cell-based; settings: 96 h, Mouse, treated four days
# Method: as §1, §2
# [4] = system: CT26-R500 murine colon cancer cell line; experiment: Growth inhibition by MTT staining, CT26-R500; assay type: cell-based; settings: Mouse tumor cells; cell line not given; read-out: IC50 Values, cell line cell blank (third row below UV2237)
# Method: as §1, §2
# [5] = system: primary bone marrow mesenchymal stem cells (MSC); experiment: Growth inhibition, bone marrow mesenchymal stem cells; assay type: cell-based, Human
# Method: as §1, §2
# p21Waf1/Cip1 and PCNA = target: T1, p21Waf1/Cip1 and PCNA (Homo sapiens, UniProt P12004); experiment: Association of p21Waf1/Cip1 to PCNA (immunoprecipitation); assay type: cell-based; settings: Pc-3 and LNCaP, 0.5 μM, 8 H; FIG. 13
# T1 construct: endogenous in cells; host or cells: PC-3, LNCaP
# Method: Chromatin-associated trimeric PCNA executes its function through numerous partner proteins, including p21Waf1/Cip1. To validate that treatment with PCNA-I1 reduces function of PCNA, the binding of p21Waf1/Cip1 to PCNA was investigated. Specifically, Pc-3 and LNCaP cells were treated with PCNA-I1 (0.5 μM) for 8 H and lysed in buffer B as previously discussed. Chromatin-associated protein was extracted in buffer D containing 0.42 M NaCl. The chromatin-associated protein was precipitated with the antibody to PCNA, and was resolved in SDS-PAGE, and probed with antibodies to p21Waf1/Cip1 and PCNA.
# T1 sequence (P12004 whole entry): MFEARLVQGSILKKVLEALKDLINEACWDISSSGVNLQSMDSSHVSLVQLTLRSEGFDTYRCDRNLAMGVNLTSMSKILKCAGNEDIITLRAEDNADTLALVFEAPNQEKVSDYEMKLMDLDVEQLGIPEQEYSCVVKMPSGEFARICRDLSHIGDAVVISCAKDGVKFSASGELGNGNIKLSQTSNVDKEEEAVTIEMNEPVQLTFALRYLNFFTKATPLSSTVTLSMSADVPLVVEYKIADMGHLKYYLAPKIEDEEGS
compound,measurement,setting,value
Cc1ccsc1C(=O)N/N=C/c1ccc2ccccc2c1O [PCNA-I1],IC50,[1],150 nM
same,IC50,"[2]; 96 h, Table II, Human tumor cells, MTT, treated four days, mean of five to seven experiments, read-out: IC50 Values, PC-3",240 nM
same,IC50,"[2]; Homo sapiens, FIG. 2(C), read-out: IC50, PC-3",250 nM
same,IC50,[3],160 nM
same,IC50,B16 melanoma cells,350 nM
same,IC50,K1735 melanoma cells,50 nM
same,IC50,[4],70 nM
same,IC50,"[5]; Homo sapiens, FIG. 2(C), read-out: IC50, MSC",989 nM
same,IC50,"[5]; Human, Bone Marrow, normal cells, read-out: IC50 Values, Mesenchymal Stem Cells",990 nM
same,Level of chromatin-associated PCNA and p21Waf1/Cip1,p21Waf1/Cip1 and PCNA,reduced the level of PCNA and p21Waf1/Cip1
